Consider 43 compounds from ChEMBL document CHEMBL4622970, “Design, Synthesis, and Evaluation of New Quinazolinone Derivatives that Inhibit Bloom Syndrome Protein (BLM) Helicase, Trigger DNA Damage at the Telomere Region, and Synergize with PARP Inhibitors” (J Med Chem, 2020).

The target in test [1] is T1, RecQ-like DNA helicase BLM (Homo sapiens, UniProt P54132). Kind of test: Inhibition of His-tagged BLM (642 to 1296 residues) (unknown origin) expressed in Escherichia coli BL21 (DE3) cells assessed as reduction in DNA unwinding activity using 5'-biotin-labeled forked DNA as substrate preincubated for 1 hr followed by substrate addition and measured after 1 hr by electrophoretic mobility shift assay.
T1 sequence (P54132 whole entry, the tested form may be a part): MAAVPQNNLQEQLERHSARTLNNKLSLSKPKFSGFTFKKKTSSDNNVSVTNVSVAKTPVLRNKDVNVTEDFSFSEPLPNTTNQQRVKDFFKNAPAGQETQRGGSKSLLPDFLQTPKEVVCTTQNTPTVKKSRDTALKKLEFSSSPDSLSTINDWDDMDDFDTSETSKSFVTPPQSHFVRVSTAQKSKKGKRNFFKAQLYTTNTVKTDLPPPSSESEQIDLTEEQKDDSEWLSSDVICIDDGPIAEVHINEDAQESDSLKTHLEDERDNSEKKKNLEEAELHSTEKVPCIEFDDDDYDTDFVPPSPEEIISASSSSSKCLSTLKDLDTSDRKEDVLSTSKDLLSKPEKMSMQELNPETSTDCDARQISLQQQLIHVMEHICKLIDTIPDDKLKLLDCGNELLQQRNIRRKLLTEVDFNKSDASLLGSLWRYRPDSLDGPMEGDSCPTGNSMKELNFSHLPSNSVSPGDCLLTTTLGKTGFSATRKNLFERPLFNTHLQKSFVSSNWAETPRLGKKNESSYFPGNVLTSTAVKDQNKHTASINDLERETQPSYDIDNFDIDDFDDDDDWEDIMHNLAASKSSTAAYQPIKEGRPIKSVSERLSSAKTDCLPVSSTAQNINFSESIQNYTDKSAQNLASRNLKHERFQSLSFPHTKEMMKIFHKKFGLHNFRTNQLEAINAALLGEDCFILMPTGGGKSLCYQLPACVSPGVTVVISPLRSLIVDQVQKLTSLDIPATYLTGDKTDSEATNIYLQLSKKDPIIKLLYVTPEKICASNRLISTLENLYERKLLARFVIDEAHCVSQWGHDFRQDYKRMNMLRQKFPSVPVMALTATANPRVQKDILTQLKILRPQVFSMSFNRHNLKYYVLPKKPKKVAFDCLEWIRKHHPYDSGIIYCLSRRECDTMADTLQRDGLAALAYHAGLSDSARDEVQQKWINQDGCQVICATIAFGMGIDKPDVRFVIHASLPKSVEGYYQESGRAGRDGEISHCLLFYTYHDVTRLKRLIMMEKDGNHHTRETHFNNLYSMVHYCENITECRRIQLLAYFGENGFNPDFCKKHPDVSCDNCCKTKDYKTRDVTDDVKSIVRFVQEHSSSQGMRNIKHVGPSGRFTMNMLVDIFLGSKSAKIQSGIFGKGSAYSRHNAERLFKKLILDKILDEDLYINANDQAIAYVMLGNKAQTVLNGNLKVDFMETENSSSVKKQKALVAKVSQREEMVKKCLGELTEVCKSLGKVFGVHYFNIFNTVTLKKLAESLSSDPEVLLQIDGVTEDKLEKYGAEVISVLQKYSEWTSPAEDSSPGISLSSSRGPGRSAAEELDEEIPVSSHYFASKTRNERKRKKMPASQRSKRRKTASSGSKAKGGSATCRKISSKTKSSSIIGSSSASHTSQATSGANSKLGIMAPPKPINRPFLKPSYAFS

Test [2] has as its target T1, RecQ-like DNA helicase BLM. The experiment in a line: Inhibition of His-tagged BLM (642 to 1296 residues) (unknown origin) expressed in Escherichia coli BL21 (DE3) cells assessed as reduction in DNA unwinding activity at <10 uM using 5'-biotin-labeled forked DNA as substrate preincubated for 1 hr followed by substrate addition and measured after 1 hr by electrophoretic mobility shift assay. For orientation: In EMSA bound probe runs differently from free probe, usually more slowly.

In test [3] the target is T1, RecQ-like DNA helicase BLM. Kind of test: Inhibition of BLM in human HCT116 cells assessed as down regulation of HRR level at 0.5 uM measured after 24 hrs by luciferase reporter gene assay. The format is cell-based. As to conditions: HCT-116. For orientation: Reporter assays use an easily measured gene product as a stand-in for the process of interest.
The target of test [4] is T1, RecQ-like DNA helicase BLM. Kind of test: Binding affinity to wild-type His-tagged BLM (642 to 1296 residues) (unknown origin) expressed in Escherichia coli BL21 (DE3) cells by isothermal calorimetric titration assay. In general terms: In ITC the heat of successive injections is recorded.
The target of test [5] is T1, RecQ-like DNA helicase BLM. The experiment in a line: Inhibition of BLM in human HCT116 cells assessed as potentiation of niraparib-induced cytotoxicity at 1 to 2 uM measured after 48 hrs by MTT assay. The format is cell-based. As to conditions: HCT-116.
Test [6] concerns the target T1, RecQ-like DNA helicase BLM. Kind of test: Binding affinity to BLM in human HCT116 cells cotransfected with DSB model and I-SceI plasmid assessed as reduction in recruitment of protein to DSB site in DNA at 1 uM measured after 24 hrs by chromatin immunoprecipitation assay. The format is cell-based. As to conditions: HCT-116.
For test [7], the system named is RecQ-like DNA helicase BLM (Homo sapiens), P54132 [I1168A]. The experiment in a line: Binding affinity to His-tagged BLM I1168A mutant (unknown origin) expressed in Escherichia coli BL21 (DE3) cells by isothermal calorimetric titration assay.
RecQ-like DNA helicase BLM (Homo sapiens), P54132 [I1168A], sequence (P54132 whole entry I1168A): as the sequence (P54132 whole entry, the tested form may be a part) above, with I1168A counted along it
The target in test [8] is T1, RecQ-like DNA helicase BLM. Kind of test: Inhibition of BLM in human HCT116 cells assessed as potentiation of olaparib-induced cytotoxicity at 1 to 2 uM measured after 48 hrs by MTT assay. The format is cell-based. To be noted: HCT-116.
The test system of test [9] is RecQ-like DNA helicase BLM (Homo sapiens), P54132 [H996A]. The experiment in a line: Binding affinity to His-tagged BLM H996A mutant (unknown origin) expressed in Escherichia coli BL21 (DE3) cells by isothermal calorimetric titration assay.
RecQ-like DNA helicase BLM (Homo sapiens), P54132 [H996A], sequence (P54132 whole entry H996A): as the sequence (P54132 whole entry, the tested form may be a part) above, with H996A counted along it
In test [10] the target is T1, RecQ-like DNA helicase BLM. The experiment in a line: Binding affinity to BLM in human HCT116 cells cotransfected with DSB model and I-SceI plasmid assessed as reduction in recruitment of protein to DNA region distant from DSB site at 1 uM measured after 24 hrs by chromatin immunoprecipitation assay. The format is cell-based. As to conditions: HCT-116.
Test [11] has as its target T1, RecQ-like DNA helicase BLM. Kind of test: Inhibition of BLM in human HCT116 cells assessed as increase in gamma-H2AX level at 2 uM measured after 24 hrs by Western blot analysis. The format is cell-based. As to conditions: HCT-116.
In test [12] the test system is HCT-116. The experiment in a line: Cytotoxicity against human HCT116 cells by MTT assay. The format is functional, cell-based.
In test [13] the target is T1, RecQ-like DNA helicase BLM. The experiment in a line: Binding affinity to His-tagged BLM (642 to 1296 residues) (unknown origin) expressed in Escherichia coli BL21 (DE3) cells assessed as inhibition of protein interaction with 5'-biotin-labeled forked DNA measured after 1 hr by ELISA.

Active and inactive are the calls of the source. No cut-off for these calls is given here.

Take `CCN(CC)CCNc1ccc2c(=O)n3c(nc2c1)/C(=C/c1ccc(C(C)C)cc1)CC3`: the IC50 in [1] stood at 1.3 µM.

For `CCCc1ccc(/C=C2\CCn3c2nc2cc(NCCN(CC)CC)c(F)cc2c3=O)cc1`, in [1], the concentration for half-maximal inhibition (IC50) is 3.3 µM.

As to `CCN(CC)CCCNc1c2c(nc3ccccc13)/C(=C/c1ccc(C(C)(C)C)cc1)CC2`, the “Inhibition (active/not active)” value in [2] is “inactive”.

Consider `CCN(CC)CCNc1cc2nc3n(c(=O)c2cc1F)CCC3Cc1ccc(CC(C)C)cc1` (centres undefined), for which the “Inhibition (active/not active)” value in [2] was “Active”. Moreover, in test [1], the IC50 was greater than 10 µM.

On to `CC(C)CCNc1cc2nc3n(c(=O)c2cc1F)CC/C3=C\c1ccc(C(C)C)cc1`, for which, in [2], the “Inhibition (active/not active)” value is “inactive”.

Consider `CCN(CC)CCNc1cc2nc3n(c(=O)c2cc1F)CCC3Cc1ccc(N(CC)CC)cc1O` (centres undefined), for which the “Inhibition (active/not active)” value in [2] is “inactive”.

For the compound `CCN(CC)CCNc1cc2nc3n(c(=O)c2cc1F)CCC3Cc1ccc(C(C)C)cc1` (centres undefined), the “Inhibition (active/not active)” value in [2] was “Active”. Besides, the IC50 in [1] was greater than 10 µM.

Regarding `CCN(CC)CCNc1cc2nc3n(c(=O)c2cc1F)CCC3Cc1ccc(C(C)(C)C)cc1` (centres undefined), the “Inhibition (active/not active)” value in [2] is “Active”. The IC50 in test [1] is greater than 10 µM.

With `CCN(CC)CCNc1cc2nc3n(c(=O)c2cc1F)CCC3Cc1ccc(C(C)C)cc1O` (centres undefined), the “Inhibition (active/not active)” value in [2] was “Active”. In addition, in test [1], the half-maximal inhibitory concentration (IC50) was greater than 10 µM.

Take `CCN(CC)CCCNc1c2c(nc3ccccc13)/C(=C/c1ccc(CC(C)C)cc1)CC2`: in test [2], the “Inhibition (active/not active)” value was “Active”. Besides, the IC50 in [1] was greater than 10 µM.

Consider `CCN(CC)CCCNc1cc2nc3n(c(=O)c2cc1F)CC/C3=C\c1ccc(C(C)C)cc1`, for which the half-inhibitory concentration (IC50) in test [1] amounted to 1.5 µM. For the same compound, the inhibition entry in test [3], in test [5] and in test [8] was “Active” each time. Moreover, the result in [4], in test [6], in [7], in test [9] and in test [10] was Active.

Turning to `CCN(CC)CCCCNc1cc2nc3n(c(=O)c2cc1F)CC/C3=C\c1ccc(C(C)C)cc1`, in test [1], the IC50 worked out at 1.8 µM.

Regarding `CCN(CC)CCNc1cc2nc3n(c(=O)c2cc1F)CC/C3=C\c1ccc(O)c(O)c1`, the “Inhibition (active/not active)” value in test [2] is “Active”. Also, the IC50 in test [1] is greater than 10 µM.

Regarding `CCN(CC)CCNc1cc2nc3n(c(=O)c2cc1F)CC/C3=C\c1ccc(C(C)(C)C)cc1`, the IC50 in test [1] is 2.7 µM. The inhibition result in test [3] and in test [11] was “Active” in each case. Moreover, the outcome in test [12] was Active.

`CCN(CC)CCNc1cc2nc3n(c(=O)c2cc1F)CC/C3=C\c1ccc(O)cc1O`: in test [2], the “Inhibition (active/not active)” value was “Active”. Also, the IC50 in [1] is greater than 10 µM.

As for `CCNc1cc2nc(/C=C/c3ccc(C(C)C)cc3)n(CC)c(=O)c2cc1F`, the “Inhibition (active/not active)” value in [2] is “inactive”.

On to `CCN(CC)CCCNc1cc2nc(/C=C/c3ccc(C(C)C)cc3)[nH]c(=O)c2cc1F`, for which, in test [2], the “Inhibition (active/not active)” value is “Active”. Moreover, the half-maximal inhibitory concentration (IC50) in test [1] was greater than 10 µM.

Turning to `CCc1ccc(/C=C2\CCn3c2nc2cc(NCCN(CC)CC)c(F)cc2c3=O)cc1`, the IC50 in test [1] is 3.2 µM.

As for `CCN(CC)CCNc1cc2nc3n(c(=O)c2cc1F)CC/C3=C\c1ccccc1`, the “Inhibition (active/not active)” value in test [2] was “inactive”.

With `CC(C)c1ccc(/C=C2\CCc3c2nc2ccccc2c3NCCCN(C)C)cc1`, the “Inhibition (active/not active)” value in test [2] is “Active”. In addition, the IC50 in test [1] is greater than 10 µM.

Take `CCN(CC)CCNc1cc2nc3n(c(=O)c2cc1F)CC/C3=C\c1ccc(C(C)C)cc1O`: in test [1], the 50% inhibitory concentration (IC50) was determined as 4 µM.

As to `CCN(CC)CCCNc1cc2nc(/C=C/c3ccc(CC(C)C)cc3)[nH]c(=O)c2cc1F`, in test [1], the IC50 was determined as 4.7 µM.

With `CCN(CC)CCCNc1cc2nc3n(c(=O)c2cc1F)CC/C3=C\c1ccc(C(C)C)cc1O`, the IC50 in test [1] turned out to be 4.2 µM.

For `CC(C)c1ccc(/C=C2\CCn3c2nc2cc(NCCN(C)C)c(F)cc2c3=O)cc1`, the IC50 in test [1] was 2.8 µM; in test [13], greater than 20 µM. For the same compound, in test [3], the inhibition result is “Active”. The inhibition result in [11] is “inactive”. Besides, the outcome in test [12] was Active.

As to `CCN(CC)CCNc1cc2nc3n(c(=O)c2cc1F)CCC3Cc1ccc(N(C)C)cc1` (centres undefined), the “Inhibition (active/not active)” value in [2] was “Active”. In test [1], the half-inhibitory concentration (IC50) is greater than 10 µM.

Turning to `CCN(CC)CCNc1cc2nc3n(c(=O)c2cc1F)CC/C3=C\c1ccc(OC)cc1`, in [2], the “Inhibition (active/not active)” value was “inactive”.

On to `CCN(CC)CCCNc1c2c(nc3ccccc13)/C(=C/c1ccc(C(C)C)cc1)CC2`, for which the IC50 in test [1] was found to be 8.7 µM.

In the case of `CCN(CC)CCNc1cc2nc(/C=C/c3ccc(C(C)C)cc3)n(C)c(=O)c2cc1F`, in test [1], the IC50 was 2.2 µM. In addition, in test [3], the inhibition result is “Active”. The inhibition result in test [11] was “inactive”. For the same compound, the result in test [12] was Active.

In the case of `CCc1ccc(/C=C2\CCc3c2nc2ccccc2c3NCCCN(CC)CC)cc1`, in [2], the “Inhibition (active/not active)” value was “Active”. For the same compound, the IC50 in test [1] was greater than 10 µM.

Take `CCN(CC)CCNc1cc2nc3c(cc2cc1F)CC/C3=C\c1ccc(C(C)C)cc1`: the “Inhibition (active/not active)” value in [2] was “Active”. For the same compound, the IC50 in test [1] was greater than 10 µM.

For `CCN(CC)CCCNc1cc2nc(/C=C/c3ccc(C(C)C)cc3)n(C)c(=O)c2cc1F`, the half-maximal inhibitory concentration (IC50) in [1] was 4.7 µM.

`CCN(CC)CCCNc1cc2nc(/C=C/c3ccc(C(C)C)cc3)n(CC)c(=O)c2cc1F`: the IC50 in [1] was determined as 2.8 µM.

On to `CCN(CC)CCCNc1cc2nc(/C=C/c3ccc(C(C)C)cc3)n(CC(C)C)c(=O)c2cc1F`, for which the concentration for half-maximal inhibition (IC50) in test [1] came out at 3.6 µM.

As for `CCN(CC)CCNc1cc2nc3n(c(=O)c2cc1F)CC/C3=C\c1cccs1`, the “Inhibition (active/not active)” value in test [2] is “inactive”.

On to `CCN(CC)CCCNc1cc2nc3n(c(=O)c2cc1F)CC/C3=C\c1ccccc1`, for which the “Inhibition (active/not active)” value in [2] is “inactive”.

Regarding `CCN(CC)CCNc1cc2nc3n(c(=O)c2cc1F)CC/C3=C\c1ccc(CC(C)C)cc1`, in test [1], the IC50 is 3.1 µM.

Consider `CCN(CC)CCNc1cc2nc3n(c(=O)c2cc1F)CC/C3=C\c1ccc(C(C)C)cc1`, for which the concentration for half-maximal inhibition (IC50) in [1] came to 2 µM. Besides, the inhibition entry in test [3] and in [11] was “Active” in each case. In addition, the outcome in test [12] was Active.

With `CC(=O)NCCNc1cc2nc3n(c(=O)c2cc1F)CC/C3=C\c1ccc(C(C)C)cc1`, the “Inhibition (active/not active)” value in [2] was “Active”. Moreover, in test [1], the IC50 was greater than 10 µM.

With `CCN(CC)CCNc1cc2nc3n(c(=O)c2cc1F)CC/C3=C\c1ccc(N(C)C)cc1`, the “Inhibition (active/not active)” value in [2] is “Active”. The IC50 in [1] is greater than 10 µM.

Regarding `CCN(CC)CCNc1cc2nc3n(c(=O)c2cc1F)CC/C3=C\c1ccc(N(CC)CC)cc1O`, the half-inhibitory concentration (IC50) in test [1] was 2.1 µM; in test [13], greater than 20 µM. Besides, the inhibition entry in [3] is “Active”. Moreover, the inhibition result in test [11] is “inactive”. In addition, the result in test [12] was Active.

Regarding `CCN(CC)CCNc1cc2nc3n(c(=O)c2cc1F)CCC/C3=C\c1ccc(C(C)C)cc1`, the “Inhibition (active/not active)” value in [2] was “Active”. Besides, the concentration for half-maximal inhibition (IC50) in [1] was greater than 10 µM.

For `CCN(CC)CCNc1cc2nc3n(c(=O)c2cc1F)CC/C3=C\c1ccc(N(C)C)cc1O`, the concentration for half-maximal inhibition (IC50) in test [1] is 6.4 µM.

With `CCOCCNc1cc2nc3n(c(=O)c2cc1F)CC/C3=C\c1ccc(C(C)C)cc1`, in test [2], the “Inhibition (active/not active)” value was “Active”. Also, in test [1], the half-maximal inhibitory concentration (IC50) was greater than 10 µM.

What is called IC50 is the midpoint of a concentration-inhibition curve.
